Among the data in patent US20170216252A1, “ANTI-BACTERIAL PYRUVATE KINASE MODULATOR COMPOUNDS, COMPOSITIONS, USES AND METHODS” (SIMON FRASER UNIVERSITY, priority 2014, published 2017) are MIC, IC50 and inhibition values, retold here.

Some results are limits rather than exact numbers.

Experiment [1] has as its system S. aureus ATCC 29213. The experiment is described as follows: In vitro susceptibility, broth microdilution MIC. Format: cell-based, Staphylococcus aureus. The note with it: Staphylococcus aureus, ATCC29213, Table 8; tested at least in duplicate, differing values all given; read-out: MIC. As to the method:
The antimicrobial activities of PK inhibitor candidates were determined using the 96-well microtiter standard 2-fold serial broth microdilution method as described by CLSI (formerly NCCLS) with the various gram-positive and gram-negative bacteria species mentioned above. Bacteria from a single colony were grown, overnight in either BHI Broth (VRE), mueller hinton broth (S. aureus 29213; MRSA USA400) or L-broth (E. coli, P. aeruginosa, S. typhimuriu, K. Pneumonia and A. baumannii). […] Culture plates were incubated for 18-24 h at 37° C., and optical density at 600 nm (OD600) was measured using a Benchmark Plus™ microplate spectrophotometer (Bio-Rad™). The absorbance control values for the series containing CAMHB and inhibitor were subtracted as background from the corresponding infected wells. The MIC was defined as the lowest concentration of test compound leading to complete inhibition of cell growth in relationship to compound-free control wells as determined by optical density. […] All assays were run in triplicate (Tables 1-6) or duplicate. Experiments were replicated at least twice to verify reproducibility using the above conditions.
A general note: Dilution methods test growth across graded concentrations, often in twofold steps.

In experiment [2] the target is T1, MRSA PK (Staphylococcus aureus, UniProt Q6GG09).
T1 construct: His tag (pET-28a(+) vector) (N); made in house; host or cells: E. coli BL-21 (DE3)
The experiment in a line: MRSA PK activity, continuous LDH-coupled assay. It counts as biochemical, S. aureus (MRSA strain Sanger 252). The note with it: for inhibition at 10 µM: read-out: % inhibition at the highest concentration tested (IC50). The source says: Genomic DNA of MRSA strain Sanger 252 extracted using DNeasy Tissue Kit™ (Qiagen™) was used as a template to generate the His-tagged MRSA PK. Human cDNA from MCF-7 breast cancer cell line (courtesy of Dr. J Wong, BC Cancer Research Center (Vancouver, Canada) was used as a template to generate the full-length human M2 PK enzyme. The following primer sets were used creating appropriate restriction sites (NdeI and XhoI sites underlined): For cloning of MRSA PK: M27F 5′-[…]-3′ and M27R 5′-[…]-3′, for cloning of human M2 PK isoform: hM2F 5′-[…]-3′ and hM2R 5′-[…]-3′. The resulting PCR fragments for each construct were cloned into the NdeI and XhoI unique sites of the bacterial expression vector pET-28a (+) (Novagen™). […] The sequence and the correct reading frame of all constructs were verified by sequencing. Human M1, R and L PK constructs in pET-28-a(+) vectors (courtesy of Dr. L. Cantley, Harvard Medical, School (Boston, USA)) were used to generate relevant recombinant His-tagged human PK isoforms.
MRSA and human constructs in pET-28a(+) were used to express relevant recombinant PK proteins in E. coli BL-21 (DE3). The proteins were expressed and purified using Ni-NTA agarose (Qiagen™) according to the manufacturer's protocol. Briefly, cells were grown to an absorbance of 0.4-0.5 at 600 nm in 2×YT medium, then induced with 0.1 mM IPTG for 3 h at 20° C. Cells were lysed by sonication on ice (3×10-s bursts with a 30-s recovery between bursts) in lysis buffer (0.2 mg/ml lysozyme, 50 mM Tris pH 7.5, 10 mM MgCl2, 200 mM NaCl, 100 mM KCl, 10% glycerol, 10 mM imidazole, 0.5% NP-40 and 1 mM DTT containing Complete™ protease inhibitor). Cell lysates were cleared by centrifugation (18,000×g in a Beckman™ JA-20 rotor) for 20 min at 4° C. and PK isoforms were purified by batch binding to Ni-NTA resin. The resins were then packed in columns (1×2 cm) and washed with 400 column volumes lysis buffer containing 30 mM imidazole. His-tagged PK isoforms were eluted with the same buffer containing 300 mM imidazole. The proteins were dialyzed overnight at 4° C. against 2000 volumes of ice-cold 30 mM Tris pH 7.5, 25 mM KCl, 5 mM MgCl2, 10% glycerol and 1 mM DTT to remove imidazole. All purification steps were done at 4° C.; enzymes were flash-frozen and stored at −70° C. […] Purity and physical integrity of proteins were assessed using SDS-polyacrylamide gel electrophoresis (SDS-PAGE) followed by coomassie blue staining. Protein concentration was estimated by Bradford assay (Bio-Rad Protein Assay™) using bovine serum albumin as a standard.
Candidate MRSA PK inhibitors were assayed for their ability to inhibit enzymatic activities of MRSA and human PKs. PK activity was determined using a continuous assay coupled to lactate dehydrogenase (LDH) in which the change in absorbance at 340 nm owing to oxidation of NADH was measured using a Benchmark Plus™ microplate spectrophotometer (Bio-Rad Laboratories, Hercules, Calif.). […] Reactions were initiated by the addition of 15 nM of one of the PK enzymes. PK activity proportional to the rate of change at 340 nm was expressed as specific activity (μmol/min/mg), which is defined as the amount of PK that catalyzes the formation of one micromole of either product per minute. Inhibitors were dissolved in DMSO with the final concentration of the solvent never exceeding 1% of the assay volume. IC50 values were calculated by curve fitting on a four-parameter dose-response model with variable slope using Graphpad Prism 5.0™ (GraphPad™ Software Inc., La Jolla, Calif.). […] Reactions were performed at 30° C. for up to 5 min. All values determined represent at least two measurements, in triplicate (Tables 1-6) or duplicate unless mentioned otherwise.

T1 sequence (Q6GG09 whole entry): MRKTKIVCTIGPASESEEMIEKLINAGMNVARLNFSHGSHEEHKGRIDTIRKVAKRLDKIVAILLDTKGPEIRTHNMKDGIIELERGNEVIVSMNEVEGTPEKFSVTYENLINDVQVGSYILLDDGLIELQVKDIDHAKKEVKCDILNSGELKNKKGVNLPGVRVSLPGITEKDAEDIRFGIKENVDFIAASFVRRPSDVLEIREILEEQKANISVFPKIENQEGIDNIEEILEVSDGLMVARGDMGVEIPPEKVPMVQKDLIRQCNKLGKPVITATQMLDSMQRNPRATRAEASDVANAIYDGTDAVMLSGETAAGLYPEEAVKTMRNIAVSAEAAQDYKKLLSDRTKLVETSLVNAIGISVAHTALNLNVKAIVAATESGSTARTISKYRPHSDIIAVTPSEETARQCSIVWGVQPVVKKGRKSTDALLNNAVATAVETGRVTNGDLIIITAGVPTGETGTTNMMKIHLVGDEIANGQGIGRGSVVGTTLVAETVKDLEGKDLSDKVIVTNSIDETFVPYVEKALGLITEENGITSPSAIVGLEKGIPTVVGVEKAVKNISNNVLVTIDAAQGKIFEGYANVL

Regarding `COc1ccc(NC(=O)c2[nH]c3cc(Br)ccc3c2C(=O)O)cn1` [Compound 136, 6-Bromo-2-((6-methoxypyridin-3-yl)carbamoyl)-1H-indole-3-carboxylic acid], the minimum inhibitory concentration (MIC) in experiment [1] was above 64 µg/mL. The same compound returned an IC50 in experiment [2] of 100 to 1000 nM.

Turning to `[N-]=[N+]=Nc1ccc(-c2cc3ccc(Br)cc3[nH]2)cc1` [Compound 93, 2-(4-azidophenyl)-6-bromo-1H-indole], in experiment [2], the half-inhibitory concentration (IC50) turned out to be 40.5 nM.

As for `Brc1cncc(/C=C/c2cc3ccc(Br)cc3[nH]2)c1` [Compound 100, (E)-6-Bromo-2-(2-(5-bromopyridin-3-yl)vinyl)-1H-indole], the MIC in experiment [1] was above 64 µg/mL. Further, the IC50 in experiment [2] was above 1000 nM.

In the case of `COc1ccc(/C=C/c2[nH]c3cc(Br)ccc3c2C(=O)O)nc1` [Compound 151, (E)-6-Bromo-2-(2-(5-methoxypyridin-2-yl)vinyl)-1H-indole-3-carboxylic acid], the half-maximal inhibitory concentration (IC50) in experiment [2] is above 1000 nM.

For `Cc1csc(/C=C/c2cc3ccc(Br)cc3[nH]2)n1` [Compound 113, (E)-2-(2-(6-Bromo-1H-indol-2-yl)vinyl)-4-methylthiazole], the 50% inhibitory concentration (IC50) in experiment [2] was above 1000 nM.

`COc1ccc(/C=C/c2[nH]c3cc(Br)ccc3c2C(=O)C(F)(F)F)nc1` [Compound 172, (E)-1-(6-Bromo-2-(2-(5-methoxypyridin-2-yl)vinyl)-1H-indol-3-yl)-2,2,2-trifluoroethanone] displayed an IC50 in experiment [2] above 1000 nM.

Take `Cn1c(-c2cc3ccccc3s2)nc2ccc(Br)cc21` [Compound 155, 2-(Benzo[b]thiophen-2-yl)-6-bromo-1-methyl-1H-benzo[d]imidazole]: in experiment [2], the half-inhibitory concentration (IC50) was 100 to 1000 nM.

`COC(=O)c1c(C#Cc2ncc(Cl)cn2)[nH]c2cc(Br)ccc12` [Compound 143, Methyl 6-bromo-2-((5-chloropyrimidin-2-yl)ethynyl)-1H-indole-3-carboxylate] registered an IC50 in experiment [2] below 50 nM.

For the compound `Brc1ccc2cc(CCc3ccccc3)[nH]c2c1` [Compound 37a, 6-bromo-2-phenethyl-1H-indole], the inhibition at 4 µM in experiment [2] (read-out: % inhibition (IC50)) amounted to 56%.

In the case of `[N-]=[N+]=Nc1ccc2cc(-c3cc4ccc(Br)cc4[nH]3)[nH]c2c1` [Compound 88, 6-azido-6′-bromo-1H,1′H-2,2′-biindole], in experiment [2], the IC50 is 22.6 nM.

In experiment [2], `Cc1ccc(/C=C/c2cc3ccc(Br)cc3[nH]2)o1` [Compound 114, (E)-6-Bromo-2-(2-(5-methylfuran-2-yl)vinyl)-1H-indole] yielded a concentration for half-maximal inhibition (IC50) above 1000 nM.

As for `Brc1ccc(CCc2cc3ccc(Br)cc3[nH]2)cc1` [Compound 37b, 6-bromo-2-(4-bromophenethyl)-1H-indole], half-maximal inhibition in experiment [2] (IC50) was put at 187 nM.

As to `Brc1ccc2[nH]c(-c3cc4ccccc4[nH]3)cc2c1` [Compound 10h, 5-Bromo-1H,1′H-2,2′-biindole], the inhibition at 10 µM in experiment [2] turned out to be 36%.

For `Cc1nc(/C=C/c2cc3ccc(Br)cc3[nH]2)co1` [Compound 112, (E)-4-(2-(6-Bromo-1H-indol-2-yl)vinyl)-2-methyloxazole], the half-maximal inhibitory concentration (IC50) in experiment [2] was above 100000 nM.

In experiment [2], `Cc1ncc(/C=C/c2cc3ccc(Br)cc3[nH]2)s1` [Compound 115, (E)-5-(2-(6-Bromo-1H-indol-2-yl)vinyl)-2-methylthiazole] yielded an IC50 above 1000 nM.

Take `O=C(c1c(/C=C/c2cn3ccccc3n2)[nH]c2cc(Br)ccc12)C(F)(F)F` [Compound 176, (E)-1-(6-Bromo-2-(2-(imidazo[1,2-a]pyridin-2-yl)vinyl)-1H-indol-3-yl)-2,2,2-trifluoroethanone]: in experiment [2], the IC50 is above 1000 nM.

In experiment [2], `CC(=O)c1c(/C=C/c2ccc(Cl)cc2)[nH]c2cc(Br)ccc12` [Compound 122, (E)-1-(6-Bromo-2-(4-chlorostyryl)-1H-indol-3-yl)ethanone] gave a half-inhibitory concentration (IC50) of 100 to 1000 nM.

As to `FC(F)(F)C1(c2ccc(-c3cc4ccc(Br)cc4[nH]3)cc2)NN1` [Compound 89, 6-Bromo-2-(4-(3-(trifluoromethyl)diaziridin-3-yl)phenyl)-1H-indole], in experiment [2], the inhibition at 10 µM is 84%.

`FC(F)(F)C1(c2ccc(-c3[nH]c4cc(Br)ccc4c3Cl)cc2)N=N1` [Compound 92, 6-bromo-3-chloro-2-(4-(3-(trifluoromethyl)-3H-diazirin-3-yl)phenyl)-1H-indole] came in with an IC50 in experiment [2] of 110 nM.

The compound `COC(=O)c1c(-c2cc3ccc(Br)cc3[nH]2)[nH]c2ccccc12` [Compound 90, methyl 6′-bromo-1H,1′H-[2,2′-biindole]-3-carboxylate] came in with an IC50 in experiment [2] of 2.4 nM.

Regarding `Cn1c(-c2cc3ccccc3s2)nc2cc(Br)ccc21` [Compound 156, 2-(Benzo[b]thiophen-2-yl)-5-bromo-1-methyl-1H-benzo[d]imidazole], the IC50 in experiment [2] is above 1000 nM.

In turn, `Cc1ccc(/C=C/c2cc3ccc(Br)cc3[nH]2)s1` [Compound 116, (E)-6-Bromo-2-(2-(5-methylthiophen-2-yl)vinyl)-1H-indole] had a half-maximal inhibitory concentration (IC50) in experiment [2] above 1000 nM.

`COC(=O)c1c(C#Cc2cc3cc(Cl)ccc3[nH]2)[nH]c2cc(Br)ccc12` [Compound 145, Methyl 6-bromo-2-((5-chloro-1H-indol-2-yl)ethynyl)-1H-indole-3-carboxylate] yielded an IC50 in experiment [2] above 1000 nM.

`COc1ccc(C#Cc2cc3ccc(Br)cc3[nH]2)cn1` [Compound 144, 6-Bromo-2-((6-methoxypyridin-3-yl)ethynyl)-1H-indole] showed an IC50 in experiment [2] above 1000 nM.

On to `FC(F)(F)C1(c2ccc(-c3cc4ccc(Br)cc4[nH]3)cc2)N=N1` [Compound 94, 6-bromo-2-(4-(3-(trifluoromethyl)-3H-diazirin-3-yl)phenyl)-1H-indole], for which, in experiment [2], the IC50 was determined as 78.3 nM.

In turn, `Brc1ccc2cc(C#Cc3ccccn3)[nH]c2c1` [Compound 140, 6-Bromo-2-(pyridin-2-ylethynyl)-1H-indole] returned a concentration for half-maximal inhibition (IC50) in experiment [2] above 1000 nM.

Take `COc1ccc(/C=C/c2cc3ccc(Br)cc3[nH]2)cn1` [Compound 111, (E)-6-Bromo-2-(2-(6-methoxypyridin-3-yl)vinyl)-1H-indole]: the IC50 in experiment [2] is above 1000 nM.

`Cc1csc(/C=C/c2cc3ccc(Br)cc3[nH]2)c1` [Compound 117, (E)-6-Bromo-2-(2-(4-methylthiophen-2-yl)vinyl)-1H-indole] returned an IC50 in experiment [2] above 1000 nM.

Regarding `Cn1c(C#Cc2cc3ccc(Br)cc3n2C)cc2ccc(Br)cc21` [Compound 26b, 1,2-bis(6-bromo-1-methyl-1H-indol-2-yl)ethyne], the inhibition at 10 µM in experiment [2] amounted to 27%.

By MIC is commonly meant the smallest concentration in the dilution series that meets the test's criterion for growth inhibition. As a reminder, the IC50 is the concentration that gives 50% inhibition. A low value points to higher potency.
